From PubChem BioAssay AID256 (DTP/NCI, 2004)
Inconclusive results and toxic doses are left out. The calls were made as follows: active = survival T/C of 150% or more; inactive = T/C below 125% in these data.

Tested on: CD2F1 mice, L1210 leukemia ip, survival T/C
Test: NCI In Vivo Anticancer Drug Screen. Data for tumor model L1210 Leukemia (intraperitoneal) in CD2F1 (CDF1) mice
Conditions: higher = longer survival
How it was run: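 Transplantable tumor in mice; compound-treated vs vehicle-treated groups. Read-out = treated/control ratio of the measured endpoint.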

[1] = endpoint: mean survival time, dose: 100.0 mg/kg/injection, schedule: Q01DX009 (ip), vehicle: saline with Tween-80
[2] = endpoint: mean survival time, dose: 200.0 mg/kg/injection, schedule: Q01DX009 (ip), vehicle: saline with Tween-80
[3] = endpoint: mean survival time, dose: 400.0 mg/kg/injection, schedule: Q01DX009 (ip), vehicle: saline with Tween-80
[4] = endpoint: mean survival time, dose: 100.0 mg/kg/injection, schedule: Q04DX003 (ip), vehicle: saline with Tween-80
[5] = endpoint: mean survival time, dose: 200.0 mg/kg/injection, schedule: Q04DX003 (ip), vehicle: saline with Tween-80
[6] = endpoint: mean survival time, dose: 400.0 mg/kg/injection, schedule: Q04DX003 (ip), vehicle: saline with Tween-80

Measured: T/C

OCC1OC(n2cnc3cc4ccccc4cc32)C(O)C1O (centres undefined)
inactive: endpoint: median survival time, dose: 13.25 mg/kg/injection, schedule: Q01DX005 (ip), vehicle: saline with Tween-80 100 % of control | endpoint: median survival time, dose: 26.5 mg/kg/injection, schedule: Q01DX005 (ip), vehicle: saline with Tween-80 98 % of control | endpoint: median survival time, dose: 53.0 mg/kg/injection, schedule: Q01DX005 (ip), vehicle: saline with Tween-80 88 % of control | endpoint: median survival time, dose: 106.0 mg/kg/injection, schedule: Q01DX005 (ip), vehicle: saline with Tween-80 91 % of control

[Cl][Pt][Cl].c1ccc([SeH]c2ccccc2)cc1.c1ccc([SeH]c2ccccc2)cc1
inactive: endpoint: mean survival time, dose: 25.0 mg/kg/injection, schedule: Q04DX003 (ip), vehicle: other 97 % of control | endpoint: mean survival time, dose: 50.0 mg/kg/injection, schedule: Q04DX003 (ip), vehicle: other 102 % of control | endpoint: mean survival time, dose: 100.0 mg/kg/injection, schedule: Q04DX003 (ip), vehicle: other 98 % of control | endpoint: mean survival time, dose: 200.0 mg/kg/injection, schedule: Q04DX003 (ip), vehicle: other 101 % of control | endpoint: mean survival time, dose: 400.0 mg/kg/injection, schedule: Q04DX003 (ip), vehicle: other 100 % of control

OC[CH2][Hg][Br]
inactive: endpoint: mean survival time, dose: 0.37 mg/kg/injection, schedule: Q01DX009 (ip), vehicle: saline 90 % of control | endpoint: mean survival time, dose: 0.75 mg/kg/injection, schedule: Q01DX009 (ip), vehicle: saline 92 % of control | endpoint: mean survival time, dose: 1.5 mg/kg/injection, schedule: Q01DX009 (ip), vehicle: saline 95 % of control | endpoint: mean survival time, dose: 3.0 mg/kg/injection, schedule: Q01DX009 (ip), vehicle: saline 93 % of control

CCN(CC)CCNc1cc(OC)cc2cccnc12
inactive: endpoint: mean survival time, dose: 6.25 mg/kg/injection, schedule: Q04DX002 (ip), vehicle: saline 98 % of control | endpoint: mean survival time, dose: 12.5 mg/kg/injection, schedule: Q04DX002 (ip), vehicle: saline 98 % of control | endpoint: mean survival time, dose: 25.0 mg/kg/injection, schedule: Q04DX002 (ip), vehicle: saline 95 % of control

S=C(S)NCCc1ccccn1
inactive: [1] 102 % of control | [2] 94 % of control | [3] 103 % of control

CC(=O)Nc1sc2c(c1C#N)CCCC2
inactive: [4] 93 % of control | [5] 93 % of control | [6] 101 % of control

Cc1c2ccncc2c(C)c2c1oc1ccccc12
inactive: endpoint: mean survival time, dose: 100.0 mg/kg/injection, schedule: Q01DX001 (ip), vehicle: other 108 % of control | endpoint: mean survival time, dose: 200.0 mg/kg/injection, schedule: Q01DX001 (ip), vehicle: other 98 % of control | endpoint: mean survival time, dose: 400.0 mg/kg/injection, schedule: Q01DX001 (ip), vehicle: other 95 % of control

CC(C)(C)OC(=O)NC(=O)CCC(N)C(=O)O (centres undefined)
inactive: [4] 94 % of control | [5] 91 % of control | [6] 92 % of control

Nc1ccc2ccccc2c1N=Nc1ccccc1
inactive: endpoint: mean survival time, dose: 50.0 mg/kg/injection, schedule: Q01DX009 (ip), vehicle: Klucel (hydroxypropylcellulose) (HPC) 106 % of control | endpoint: mean survival time, dose: 100.0 mg/kg/injection, schedule: Q01DX009 (ip), vehicle: Klucel (hydroxypropylcellulose) (HPC) 112 % of control | endpoint: mean survival time, dose: 200.0 mg/kg/injection, schedule: Q01DX009 (ip), vehicle: Klucel (hydroxypropylcellulose) (HPC) 113 % of control | endpoint: mean survival time, dose: 400.0 mg/kg/injection, schedule: Q01DX009 (ip), vehicle: Klucel (hydroxypropylcellulose) (HPC) 103 % of control

CN(C)CCC(O)C(O)CCN(C)C (centres undefined)
inactive: endpoint: mean survival time, dose: 75.0 mg/kg/injection, schedule: Q01DX001 (ip), vehicle: other 102 % of control | endpoint: mean survival time, dose: 150.0 mg/kg/injection, schedule: Q01DX001 (ip), vehicle: other 102 % of control | endpoint: mean survival time, dose: 300.0 mg/kg/injection, schedule: Q01DX001 (ip), vehicle: other 103 % of control

CCOc1cc(N)nc2c1nnn2C1OC(CO)C(O)C1O (centres undefined)
inactive: endpoint: mean survival time, dose: 6.25 mg/kg/injection, schedule: Q01DX005 (ip), vehicle: other 107 % of control | endpoint: mean survival time, dose: 12.5 mg/kg/injection, schedule: Q01DX005 (ip), vehicle: other 98 % of control | endpoint: mean survival time, dose: 25.0 mg/kg/injection, schedule: Q01DX005 (ip), vehicle: other 101 % of control | endpoint: mean survival time, dose: 50.0 mg/kg/injection, schedule: Q01DX005 (ip), vehicle: other 98 % of control | endpoint: mean survival time, dose: 100.0 mg/kg/injection, schedule: Q01DX005 (ip), vehicle: other 101 % of control | endpoint: mean survival time, dose: 200.0 mg/kg/injection, schedule: Q01DX005 (ip), vehicle: other 98 % of control

C=CCS(=O)(=O)Cc1cccc([N+](=O)[O-])c1
inactive: endpoint: mean survival time, dose: 100.0 mg/kg/injection, schedule: Q04DX002 (ip), vehicle: Klucel (hydroxypropylcellulose) (HPC) 103 % of control | endpoint: mean survival time, dose: 200.0 mg/kg/injection, schedule: Q04DX002 (ip), vehicle: Klucel (hydroxypropylcellulose) (HPC) 94 % of control | endpoint: mean survival time, dose: 400.0 mg/kg/injection, schedule: Q04DX002 (ip), vehicle: Klucel (hydroxypropylcellulose) (HPC) 90 % of control

c1ccc2c[n+](CCCCCCCCCC[n+]3ccc4ccccc4c3)ccc2c1
inactive: endpoint: mean survival time, dose: 8.0 mg/kg/injection, schedule: Q01DX001 (ip), vehicle: saline 88 % of control | endpoint: mean survival time, dose: 32.0 mg/kg/injection, schedule: Q01DX001 (ip), vehicle: saline 88 % of control

CC(=O)N(C(C)=O)c1ccccc1
inactive: [4] 97 % of control | [5] 97 % of control | [6] 103 % of control

O=C(CCCCCCCCC(=O)N/N=C/c1ccc(Cl)c(Cl)c1)N/N=C/c1ccc(Cl)c(Cl)c1
inactive: endpoint: mean survival time, dose: 100.0 mg/kg/injection, schedule: Q01DX001 (ip), vehicle: saline with Tween-80 95 % of control | endpoint: mean survival time, dose: 200.0 mg/kg/injection, schedule: Q01DX001 (ip), vehicle: saline with Tween-80 95 % of control | endpoint: mean survival time, dose: 400.0 mg/kg/injection, schedule: Q01DX001 (ip), vehicle: saline with Tween-80 94 % of control

Clc1cc(Cl)c(OCC#CI)cc1Cl
inactive: endpoint: mean survival time, dose: 50.0 mg/kg/injection, schedule: Q01DX001 (ip), vehicle: carboxymethylcellulose (CMC) 91 % of control | endpoint: mean survival time, dose: 100.0 mg/kg/injection, schedule: Q01DX001 (ip), vehicle: carboxymethylcellulose (CMC) 102 % of control | endpoint: mean survival time, dose: 200.0 mg/kg/injection, schedule: Q01DX001 (ip), vehicle: carboxymethylcellulose (CMC) 91 % of control | endpoint: mean survival time, dose: 400.0 mg/kg/injection, schedule: Q01DX001 (ip), vehicle: carboxymethylcellulose (CMC) 89 % of control

CC(=O)O/C=C/C=C/C=N/c1nc2c(c(=O)n(C)c(=O)n2C)n1C
inactive: endpoint: mean survival time, dose: 12.5 mg/kg/injection, schedule: Q01DX005 (ip), vehicle: distilled water + Tween-80 105 % of control | endpoint: mean survival time, dose: 25.0 mg/kg/injection, schedule: Q01DX005 (ip), vehicle: distilled water + Tween-80 91 % of control | endpoint: mean survival time, dose: 50.0 mg/kg/injection, schedule: Q01DX005 (ip), vehicle: distilled water + Tween-80 94 % of control | endpoint: mean survival time, dose: 100.0 mg/kg/injection, schedule: Q01DX005 (ip), vehicle: distilled water + Tween-80 103 % of control | endpoint: mean survival time, dose: 200.0 mg/kg/injection, schedule: Q01DX005 (ip), vehicle: distilled water + Tween-80 97 % of control

COc1ccc2c(c1)CC/C2=N/O
inactive: [4] 97 % of control | [5] 103 % of control | [6] 107 % of control

CC(=O)Nc1ccccc1OC(=O)OCC(Cl)(Cl)Cl
inactive: [1] 96 % of control | [2] 96 % of control | [3] 101 % of control

CC(CCC/C=C/CCCN(C)C(=N)N)CC(C)C1OC(=O)C(C)C(O)/C=C/C(C)C(O)C(C)C(O)C(C)C(O)CCCC(O)CC2(O)OC(CC(OC(=O)CC(=O)O)CC(O)CC(O)C(C)C(O)/C=C/C=C/C1C)CC(O)C2O (centres undefined)
inactive: endpoint: mean survival time, dose: 5.5 mg/kg/injection, schedule: Q01DX009 (ip), vehicle: saline 100 % of control

O=C(COc1ccc(Br)cc1C(=O)O)Nc1ccccc1
inactive: [4] 96 % of control | [5] 97 % of control | [6] 94 % of control

CCOC(=O)C(OC(C)=O)c1ccccc1 (centres undefined)
inactive: [1] 98 % of control | [2] 93 % of control | [3] 96 % of control
